{
  "source": "patent US11767330B2",
  "about": "“Citrate salt, pharmaceutical compositions, and methods of making and using the same” (Foghorn Therapeutics Inc., priority 2021, dated 2023)",
  "key": {"[1]": {"test": "Solubility / precipitation of IV formulations on pH adjustment", "type": "physicochemical", "conditions": "pH lowered with hydrochloric acid solution", "protocol": "Summary of Experiments. […] The pH of the compounding solution would later be adjusted by sodium hydroxide solution to the target pH. […] Only samples containing 20% SBECD (samples S-1.1 and S-2.1) were fully soluble at the desired pH.\nSample Preparation. To a 20 mL scintillation vial was added 60 mg of the racemate of the free base of the compound of Formula I and a magnetic stir bar. 3 mL of formulation solution (either 0%, 10% or 20% w/w SBECD in H2O) was added. The pH of the mixture was adjusted to approximately pH 3 by the addition of 1N HCl. Upon full dissolution (with magnetic stirring, sonication if necessary), the IV formulation was adjusted to the final pH by the addition of 1N NaOH solution. The IV formulation was filtered through a syringe filter, separated into 3 samples of approximately equal volume, and the samples were transferred to a stability chamber at 2-5° C., 25° C., or 40° C. At the specified time point the sample was removed from the stability chamber, an aliquot of the IV formulation was removed and diluted to 0.5 mg/mL with H2O for HPLC analysis.\nAs noted above, significant precipitation of compound D1 occurred upon adjusting the IV formulation to the final pH level of 5 or 6 for IV formulations containing <20% SBECD. […] IV formulations were filtered prior to conducting the stability studies."}, "[2]": {"target": "T1, Nanoluciferase-BRD9 fusion protein (Homo sapiens, UniProt Q9H8M2)", "T1 construct": "fused on or other part: 3xFLAG tag and Nanoluciferase (NLuc) as reporter handle, fused to BRD9. b953 puts them at the N-terminus", "T1 sequence (Q9H8M2 134-240 limits assumed)": "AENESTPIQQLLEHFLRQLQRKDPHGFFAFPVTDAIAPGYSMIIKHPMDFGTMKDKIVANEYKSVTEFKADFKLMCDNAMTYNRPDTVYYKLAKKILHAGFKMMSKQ", "test": "SYO1 BRD9 NanoLuc degradation assay", "type": "cell-based", "conditions": "6 hours incubation; read-out: SYO1 BRD9-NanoLuc degradation IC50", "protocol": "Procedure: A stable SYO-1 cell line expressing 3×FLAG-NLuc-BRD9 was generated. On day 0 cells were seeded in 30 μL media into each well of 384-well cell culture plates. The seeding density was 8000 cells/well. On day 1, cells were treated with 30 nL DMSO or 30 nL of 3-fold serially DMSO-diluted compounds (10 points in duplicates with 1 μM as final top dose). Subsequently plates were incubated for 6 hours in a standard tissue culture incubator and equilibrated at room temperature for 15 minutes. Nanoluciferase activity was measured by adding 15 μL of freshly prepared Nano-Glo Luciferase Assay Reagent (Promega N1130), shaking the plates for 10 minutes and reading the bioluminescence using an EnVision reader.\nResults: The Inhibition % was calculated using the following formula: % Inhibition=100×(LumHC−LumSample)/(LumHC−LumLC). DMSO treated cells are employed as High Control (HC) and 1 μM of a known BRD9 degrader standard treated cells are employed as Low Control (LC)."}, "SYO1 cells [3]": {"system": "SYO1 cells", "test": "Apoptosis assay, Annexin V-FITC Apoptosis Detection Kit", "type": "cell-based, human", "conditions": "SYO1, 8 days, compared to DMSO controls", "protocol": "(§1) Procedure: SYO1 cells were treated for 8 or 13 days with DMSO, a BRD9 degrader (Compound 1) at 200 nM or 1 μM, or an E3 ligase binder (lenalidomide) at 200 nM. Compounds were refreshed every 5 days. Cell cycle analysis was performed using the Click-iT™ Plus EdU Flow Cytometry Assay (Invitrogen). The apoptosis assay was performed using the Annexin V-FITC Apoptosis Detection Kit (Sigma A9210). Assays were performed according to the manufacturer's protocol."}, "SYO1 cells [4]": {"system": "SYO1 cells", "test": "Cell cycle analysis, Click-iT Plus EdU Flow Cytometry Assay", "type": "cell-based, human", "conditions": "SYO1, 200 nM or 1 μM, 8 or 13 days, compared to DMSO and lenalidomide", "protocol": "as §1"}, "[5]": {"system": "synovial sarcoma cell lines (SYO1, Yamato, HS-SY-II, and ASKA)", "test": "Growth of synovial sarcoma cell lines, IncuCyte confluency / crystal violet / colony imaging (Example 2)", "type": "cell-based", "conditions": "FIGS. 4, 5, 6", "protocol": "(§2) Cells were treated with DMSO or the BRD9 degrader, Compound 1, at indicated concentrations, and proliferation was monitored from day 7 to day 14 by measuring confluency overtime using an IncuCyte live cell analysis system (FIG. 4). Growth medium and compounds were refreshed every 3-4 days.\n(§3) Cells were seeded into 12-well plates and treated with DMSO, 1 μM BRD9 inhibitor, Compound 2 (also known as BI-7273, see Martin et al, J Med Chem. 59(10):4462-4475 (2016); see structure of compound 2 below), or 1 μM BRD9 degrader, Compound 1.\n(§4) The number of cells was optimized for each cell line. Growth medium and compounds were refreshed every 3-5 days. SYO1, Yamato, A549, 293T and HS-SY-II cells were fixed and stained at day 11. ASKA cells were fixed and stained at day 23. Staining was done by incubation with crystal violet solution (0.5 g Crystal Violet, 27 ml 37% Formaldehyde, 100 mL 10×PBS, 10 mL Methanol, 863 dH20 to 1 L) for 30 min followed by 3× washes with water and drying the plates for at least 24 h at room temperature. Subsequently plates were scanned on an Odyssey CLx Imaging system (FIG. 5).\n(§5) Cells were seeded into 96-well ultra-low cluster plate (Costar, #7007) in 200 μL complete media and treated at day 2 with DMSO, Staurosporin, or BRD9 degrader, Compound 1, at indicated doses (FIG. 2C). Media and compounds were changed every 5 d and cell colonies were imaged at day 14."}, "[6]": {"system": "non-synovial control cancer cell lines (RD, HCT116, and Calu6)", "test": "Growth of non-synovial control cancer cell lines, crystal violet day 14 (Example 3)", "type": "cell-based", "conditions": "daily treatment", "protocol": "(§6) Procedure: Cells were seeded into 6-well or 12-well plates and were treated daily with a BRD9 degrader (Compound 1), a bromo-domain BRD9 binder (Compound 2), E3 ligase binder (lenalidomide), DMSO, or staurosporin (positive control for cell killing), at indicated concentrations. The number of cells was optimized for each cell line. Growth media was refreshed every 5 days. By day 14, medium was removed, cells were washed with PBS, and stained using 500 μL of 0.005% (w/v) crystal violet solution in 25% (v/v) methanol for at least 1 hour at room temperature. Subsequently plates were scanned on an Odyssey CLx Imaging system."}, "[7]": {"system": "synovial sarcoma cell lines (SYO1, HS-SY-II, and ASKA)", "test": "Growth of synovial sarcoma cell lines, crystal violet day 14 (Example 3)", "type": "cell-based", "conditions": "daily treatment", "protocol": "as §6"}, "[8]": {"system": "non-synovial control cancer cell lines (293T, A549, G401)", "test": "Growth of non-synovial control cancer cell lines (Example 2)", "type": "cell-based", "protocol": "as §2, §3, §4, §5"}},
  "note": "“Also recorded” adds a separate entry of the source.",
  "data": [
    {"smiles": "COc1cc(-c2cn(C)c(=O)c3cnc(N4CCC4)cc23)cc(OC)c1CN1CCC(CN2CCC3(CC2)CN(c2ccc4c(c2)C(=O)N(C2CCC(=O)NC2=O)C4)C3)CC1", "note": "(racemic) [racemate of the free base of the compound of Formula I]", "values": [
      {"measurement": "dissolution at pH 3", "setting": "[1]", "result": "complete dissolution"}
    ]},
    {"smiles": "[2H]C([2H])([2H])Oc1cc(-c2cn(C)c(=O)c3cnc(N4CCC4)cc23)cc(OC([2H])([2H])[2H])c1CN1CCC(CN2CCC3(CC2)CN(c2ccc4c(c2)C(=O)N(C2CCC(=O)NC2=O)C4)C3)CC1", "note": "(centres unmarked) [Compound D2]", "values": [
      {"measurement": "DC50", "setting": "[2]", "result": 0.18, "unit": "nM"}
    ]},
    {"smiles": "COc1cc(-c2cn(C)c(=O)c3cnccc23)cc(OC)c1CN(C)CC(=O)NCCOCCOCCNc1cccc2c1C(=O)N(C1CCC(=O)NC1=O)C2=O", "note": "(centres unmarked) [Compound 1]", "values": [
      {"measurement": "early- and late-apoptotic cells", "setting": "SYO1 cells [3]", "result": "increased numbers of early- and late-apoptotic cells"},
      {"measurement": "cells in the S-phase of the cell cycle", "setting": "SYO1 cells [4]", "result": "reduced numbers of cells in the S-phase of the cell cycle"},
      {"measurement": "growth of synovial sarcoma cell lines", "setting": "[5]", "result": "inhibition of the growth of the cells"},
      {"measurement": "growth of non-synovial control cancer cell lines", "setting": "[6]", "result": "did not result in inhibition of the growth"},
      {"measurement": "growth of synovial sarcoma cell lines", "setting": "[7]", "result": "inhibition of the growth of the cells; also recorded: most significant growth inhibition in all synovial cell lines"},
      {"measurement": "growth of non-synovial control cancer cell lines", "setting": "[8]", "result": "does not result in inhibition of the growth"}
    ]}
  ]
}
